Source: PubChem BioAssay (NCI)
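Compound exposure: 48 hours, 5 concentrations, 96-well plates. Here, GI50 denotes the concentration required for 50% inhibition of growth. TGI is the concentration that stops growth completely.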

How the values were obtained:
Assay in all cases: DTP human tumour cell line panel, 48 h
SW-620 colon = test system: SW-620 colon
NCI-H23 lung = test system: NCI-H23 lung
RXF 393 renal = test system: RXF 393 renal
EKVX NSCLC = test system: EKVX NSCLC
K-562 leukemia = test system: K-562 leukemia
LOX IMVI melanoma = test system: LOX IMVI melanoma
M14 melanoma = test system: M14 melanoma
UO-31 renal = test system: UO-31 renal
NCI-H226 lung = test system: NCI-H226 lung
OVCAR-4 ovarian = test system: OVCAR-4 ovarian
COLO 205 colon = test system: COLO 205 colon
SF-295 CNS = test system: SF-295 CNS

Row | Compound | TGI (SW-620 colon) [µM] | TGI (NCI-H23 lung) [µM] | TGI (RXF 393 renal) [µM] | TGI (EKVX NSCLC) [µM] | TGI (K-562 leukemia) [µM] | TGI (LOX IMVI melanoma) [µM] | TGI (M14 melanoma) [µM] | TGI (UO-31 renal) [µM] | TGI (NCI-H226 lung) [µM] | TGI (OVCAR-4 ovarian) [µM] | TGI (COLO 205 colon) [µM] | TGI (SF-295 CNS) [µM] | GI50 (OVCAR-4 ovarian) [µM]
1 | O=c1c(Cc2ccccc2)c(-c2ccccc2)[nH]n1C1=NCCN1 | > 100 | > 100 | > 100 | > 100 | > 100 | 38.1 | > 100 | > 100 | > 100 | > 100 | > 100 | > 100 | 
2 | CCOC(=O)/C(=C/c1ccco1)P(=O)(OCC)OCC | > 100 | > 100 |  | > 100 | > 100 | > 100 | > 100 | > 100 | > 100 | > 100 | > 100 | > 100 | 
3 | Nc1n[nH]c2ccccc12 | > 100 | > 100 | > 100 | > 100 | > 100 | > 100 | > 100 | > 100 | > 100 | > 100 | > 100 | > 100 | 
4 | Cc1cccc(NC(Nc2cccc(C)c2)=C(C(Cl)=C(Cl)Cl)[N+](=O)[O-])c1 | 34.2 | 23.6 | 22.8 | > 59 | > 100 | 28.7 | > 52 | 26.4 | 22.5 | > 82 | 28.3 | > 66.8 | 
5 | COC(=O)[C@H]1C=C[C@H](OC2OC(COC(C)=O)C(OC(C)=O)C(OC(C)=O)C2OC(C)=O)n2c(=O)n(-c3ccccc3)c(=O)n21 (stereo partly specified) | 5.68 | 15.6 | 3.73 | 7.37 | 4.91 |  | 9.64 | 4.96 | 20.5 | 32.9 | 3.6 | 26.9 | 4.14
6 | COc1cc(OC)c(C2c3cc4c(cc3OC(N3CCOCC3)C2C)OCO4)c(OC)c1 (stereo unspecified) | > 100 | > 100 |  | > 100 | > 100 | > 100 | > 100 | > 100 |  |  | > 100 | > 100 | 
7 | C/C(=N\Nc1nc2ccccc2s1)c1cccnn1 | > 100 | 20.2 | 84.5 | 33.5 | > 100 |  | 88.7 | 71.2 | 59.3 | > 100 | > 100 | 7.2 | 
8 | CCOC(=O)c1ccc(C(=O)/C(C(=O)OC(C)(C)C)=C2\CCCN2C)n1C | > 100 | > 100 | > 100 | > 100 | > 100 | > 100 | > 100 | > 100 | > 100 | > 100 | > 100 | > 100 | 
9 | CCN(CC)C(=S)SS(=O)(=O)c1ccc(C)cc1 | 45.2 | > 100 | 33.4 | > 100 | > 100 | 36.1 | 28.2 | 51.2 | > 100 | > 100 | 63.7 | > 100 | 
10 | COC(=O)/C=C\S/C(=C(/c1ccccc1)n1ccc(C(=O)OC)n1)c1ccccc1 | > 100 | > 100 | 39.8 | > 100 | > 100 | > 100 | > 100 | 38.7 | > 100 | > 100 | > 100 | > 100 | 
11 | NC(=S)N=Nc1c(O)cc(Nc2ccc(Cl)cc2Cl)c2ccccc12 | > 100 | 97.7 | 51.4 | 94.4 |  | > 100 | > 100 | > 100 | > 100 | > 100 | > 100 | 45.9 | 
12 | COc1cc2c3c(n(C)c(=O)c2cc1OC)-c1cc2c(cc1/C3=C/CCCCBr)OCO2 | > 100 | > 100 | > 100 | > 100 | > 100 | > 100 | > 100 | > 100 |  |  | > 100 | > 100 | 
13 | Cc1cc(C)nc(NS(=O)(=O)c2ccc(Nc3c4ccccc4nc4c(C(=O)N5CCN(CCOS(C)(=O)=O)CC5)ccc(Cl)c34)cc2)n1 |  | > 100 | > 100 |  | > 100 |  | > 100 | > 100 | > 100 | > 100 | > 100 | > 100 | 
14 | CCOC(=O)C(NC(=O)c1ccc(N=NN(C)C)cc1)C(C)C (stereo unspecified) | > 100 | > 100 |  | > 100 | > 100 | > 100 | > 100 | > 100 | > 100 | > 100 | > 100 | > 100 | 
15 | CCOP(=O)(OCC)c1cc(-c2ccccc2)ccc1N | > 100 | > 100 | > 100 | > 100 | > 100 |  | > 100 | > 100 |  | > 100 | > 100 | > 100 | 
16 | COC(=O)C(CCCCNC(=O)CNC(=O)OCc1ccccc1)NC(=O)C(CCCCNC(=O)CNC(=O)OCc1ccccc1)NC(=O)OCc1ccccc1 (stereo unspecified) | > 100 | > 100 |  |  | > 100 | > 100 | > 100 | > 100 | > 100 | 89.9 |  |  | 
17 | O=c1oc2ccccc2c2nc3ccccc3cc12 | > 100 | > 100 | 91.3 | > 100 | > 100 |  | > 100 | > 100 | > 100 | 47.7 | > 100 | > 100 | 
18 | COC1OC2COC(C)(C)OC2C2OC(C)(C)OC12 (stereo unspecified) | > 100 | > 100 | > 100 | > 100 | > 100 |  | > 100 | > 100 | 76.2 | > 100 | > 100 | > 100 | 
19 | CC1=C(C(=O)NNC(=O)CC#N)CC(C(=O)NNC(=O)CC#N)=C(C)N1 | > 100 | > 100 | > 100 | > 100 |  | > 100 | > 100 | > 100 | > 100 | > 100 | > 100 | > 100 | 

Row | Compound | TGI (SW-620 colon) [µM] | TGI (NCI-H23 lung) [µM] | TGI (RXF 393 renal) [µM] | TGI (EKVX NSCLC) [µM] | TGI (K-562 leukemia) [µM] | TGI (LOX IMVI melanoma) [µM] | TGI (M14 melanoma) [µM] | TGI (UO-31 renal) [µM] | TGI (NCI-H226 lung) [µM] | TGI (OVCAR-4 ovarian) [µM] | TGI (COLO 205 colon) [µM] | TGI (SF-295 CNS) [µM] | GI50 (OVCAR-4 ovarian) [µM]
20 | CC(C)(C)c1ccc2c(c1)OCc1n[nH]c(n1)COc1cc(C(C)(C)C)ccc1OCCOCCO2 | 13.1 | 12.5 | 4.56 | 17.7 | > 100 |  | 13.5 | 13.1 | 8.97 | 7.45 | 12.6 | 12.5 | 
21 | O=C(CN=C(CN(c1ccccc1)c1ccccc1)Oc1c(Cl)cc(Cl)cc1Cl)n1cnc2ccccc21 | > 100 | > 100 | 25.6 | > 100 | > 100 |  | > 100 |  | > 100 | > 100 | > 100 | > 100 | 
22 | N#CC(C#N)=Cc1cccc(Oc2ccccc2)c1 | 58.7 | 22 | 33.4 | > 100 | > 95.4 | 43.6 | 40.4 | 30.8 | > 69.1 |  | 73.9 | 45.5 | 
23 | O=C(NCCCNCCCCNCCCNC(=O)C(F)(F)F)C(F)(F)F | > 100 | > 100 | > 100 | > 100 |  | > 100 | > 100 | > 100 | > 100 | > 100 | > 100 | > 100 | 
24 | COc1ccc(CCCCl)c(C2=NCCc3ccccc32)c1 | > 100 | > 100 | > 100 | > 100 | > 100 |  | > 100 | > 100 | > 100 | > 100 | 82.8 | > 100 | 
25 | CC12CCC(C/C1=N\NC(N)=O)C2(C)C (stereo unspecified) | > 100 | > 100 |  | > 100 | > 100 | > 100 | > 100 | > 100 | > 100 | > 100 | > 100 | > 100 | 
26 | FC(F)=C(c1ccc(-c2ccc(Cl)cc2)cc1)C(F)(F)F | 40.3 | 35.4 | 40.9 | 41.5 | 71.9 |  | 36.1 | 31 |  | 33.5 | 36.1 | 56.7 | 
27 | O=c1cc(-c2ccccc2F)[nH]c2cc3c(cc12)OCO3 | > 100 | 6.8 | > 100 |  | > 15.7 | > 78.8 | 5.1 | > 100 | 1.81 | > 100 | 0.281 | 9.84 | 
28 | COC(=O)c1cc(C(=O)OC)cc(-c2ccc3c(c2)-c2nc4c(c(-c5ccc(OC)cc5)c2CC3)CCc2ccc(-c3cc(C(=O)OC)cc(C(=O)OC)c3)cc2-4)c1 |  | > 100 |  | 31.3 | 1.06 |  | > 100 | > 100 | > 100 | > 100 | > 100 | > 100 | 
29 | CCC1C(=O)OCc2c1cc1n(c2=O)CCC12OCCO2 (stereo unspecified) | > 100 | > 100 |  | > 100 | > 100 | > 100 | > 100 | > 100 | > 100 | > 100 | > 100 | > 100 | 
30 | COC(=O)C1=C(C)N2[C@H](C(=O)O)CS[C@@]2(C)[C@H](C(=O)OC)[C@H]1c1cccc([N+](=O)[O-])c1 | > 100 | > 100 | > 100 | > 100 | > 100 |  | > 100 | > 100 | > 100 | > 100 | > 100 | > 100 | 
31 | COC(=O)/C(=N\NC(=S)NN)C(C(=O)C(=O)Nc1ccccc1C(N)=O)c1nc2ccccc2[nH]c1=O (stereo unspecified) | > 100 | > 100 | > 100 | > 100 | > 100 |  | > 100 | > 100 | > 100 | > 100 | > 100 | > 100 | 
32 | Cc1cn(C2CC(OC(c3ccccc3)(c3ccccc3)c3ccccc3)C(COC(c3ccccc3)(c3ccccc3)c3ccccc3)O2)c(=O)[nH]c1=O (stereo unspecified) | > 100 |  | > 100 | > 100 | > 100 | > 100 | > 100 | > 100 | 88.7 | > 100 | > 100 | > 100 | 
33 | CCCC[C@@H]1CCN2C[C@@H](O)[C@@H](O)[C@H]2[C@@H]1O | > 100 | > 100 |  | > 100 | > 100 | > 100 | > 100 | > 100 | > 100 | > 100 | > 100 | > 100 | 
34 | CCOC(=O)c1c(NC(=S)Nc2ccc(C)cc2)sc2c1CCN(C)C2 |  | > 100 | > 100 | > 100 | > 100 |  | > 100 | > 100 | > 100 |  | > 100 | > 100 | 
35 | CCOC(=O)c1[nH]c2nc(SC)nc(NC)c2c1N | > 100 | > 100 | > 100 |  | > 100 | > 100 | > 100 | > 100 | > 100 | > 100 | > 100 | > 100 | 
36 | COc1cc(-c2c3c(cc4c2OCO4)[C@@H](Nc2ccc4c(c2)Cc2cc(N[C@@H]5c6cc7c(cc6C(c6cc(OC)c(O)c(OC)c6)[C@H]6C(=O)OC[C@H]56)OCO7)ccc2-4)[C@H]2COC(=O)[C@@H]2C3)cc(OC)c1O (stereo partly specified) | > 100 | > 100 |  | > 100 |  | > 100 | 50.3 | > 100 | > 100 |  | 28.7 | 42.3 | 
37 | Cc1ccc2c(c1)C(=O)/C(=C\c1ccc(Cl)cc1)CCS2(=O)=O | 12.1 | 10.2 |  | 25.3 | 3.32 | 6.43 | > 34.4 | 9.02 | 14.2 | 6.93 | 15.6 | 17.9 | 
38 | NC(=O)NC(=NCc1ccccc1)NCc1ccccc1 | > 100 | > 100 |  | > 100 |  | > 100 | > 100 | > 100 |  | > 100 | > 100 | > 100 | 
